# Square brackets hold non-standard residues; d marks the D form. Peptide text beside a SMILES is read from it. * marks the point of attachment. Sta = CC(C)C[C@H](N)[C@@H](O)CC(=O)O; AMC = Cc1cc(=O)oc2cc(N*)ccc12; Isovaleryl = CC(C)CC(=O)*; Nle = CCCC[C@H](N)C(=O)O; Boc = CC(C)(C)OC(=O)*
# What was measured:
# [1] = target: T1, purified S1P(983)-C (Cricetulus griseus, UniProt Q9Z2A8, T875N); experiment: Fluorogenic peptide assay for S1P activity (cleavage of MCA-conjugated peptides); assay type: biochemical, hamster; settings: for Relative Activity: Ac-VFRSLK-MCA set at 1.0; for cleavage of the peptide: result in words
# T1 construct: Truncated S1P (amino acids 1-983); GGR linker (NotI site); made in house; host or cells: SRD-12B cells (mutant CHO cells lacking S1P) stably transfected with pCMV-S1P(983)-Myc-His (TR-3117, 'S1P(983) cells'); secreted into the medium and purified on Ni-NTA
# T1 sequence (Q9Z2A8 187-983 T875N): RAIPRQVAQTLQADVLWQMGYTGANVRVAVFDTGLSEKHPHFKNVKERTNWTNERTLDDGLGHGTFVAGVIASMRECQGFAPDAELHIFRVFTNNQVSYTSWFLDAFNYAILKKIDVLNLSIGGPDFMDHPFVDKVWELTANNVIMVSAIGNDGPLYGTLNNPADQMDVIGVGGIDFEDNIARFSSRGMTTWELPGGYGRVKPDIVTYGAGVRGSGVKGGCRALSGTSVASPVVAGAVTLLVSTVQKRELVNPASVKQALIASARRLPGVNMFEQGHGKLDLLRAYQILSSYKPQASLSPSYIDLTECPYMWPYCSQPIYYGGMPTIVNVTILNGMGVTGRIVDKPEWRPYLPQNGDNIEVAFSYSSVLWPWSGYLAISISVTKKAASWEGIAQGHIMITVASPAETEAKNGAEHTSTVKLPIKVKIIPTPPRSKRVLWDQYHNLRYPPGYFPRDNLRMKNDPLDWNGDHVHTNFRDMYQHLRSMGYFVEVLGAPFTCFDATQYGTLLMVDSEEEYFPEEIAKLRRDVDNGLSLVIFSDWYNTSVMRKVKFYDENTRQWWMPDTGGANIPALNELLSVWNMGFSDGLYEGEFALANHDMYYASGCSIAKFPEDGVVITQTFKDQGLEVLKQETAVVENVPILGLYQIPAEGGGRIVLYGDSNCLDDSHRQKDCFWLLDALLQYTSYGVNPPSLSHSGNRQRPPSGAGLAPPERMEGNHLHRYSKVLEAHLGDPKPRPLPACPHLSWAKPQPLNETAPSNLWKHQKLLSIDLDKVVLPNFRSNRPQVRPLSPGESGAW
# Protocol: (§1) Fluorogenic Peptide Assay for S1P Activity
# S1P activity was measured fluorometrically with MCA-conjugated peptidyl substrates. Each reaction was carried out in 0.2 ml of assay buffer (25 mM Tris, 25 mM Mes, 25 mM acetic acid, and 1 mM CaCl2 adjusted to pH 8.0 with concentrated NaOH). Reactions contained MCA-peptide (final concentration 100 μM, added in 2 μl DMSO) and […] of purified S1P(983)-C. After incubation for 0.5-5 h at 37° C., each reaction was terminated by addition of 1 ml of ice-cold 5 mM sodium EDTA. The liberated 7-amino-4-methyl-coumarin (AMC) was measured with a Perkin-ElmerLS-30 luminescence spectrometer (360 nm excitation, 460 nm emission). A standard curve of fluorescence intensity was generated with different concentrations of AMC (Promega).
# Similar substrates have been used to assay furin, prohormone convertases, and other subtilisin-related enzymes (Nakayama, 1997). […] The sequence of this peptide corresponds to the sequence at Site-B of S1P, which is known to be cleaved by S1P in an autocatalytic reaction. Fluorescence rose linearly with time for 5 h. […] This differs from the observations with furin and the prohormone convertases, whose pH optima are generally in the range of 6-7 (Nakayama, 1997).
# The indicated fluorogenic peptide-MCA (100 μM) was incubated with 3 μg of purified S1P(983)-C at 37° C. for 5 h. The S1P activity of Ac-VFRSLK-MCA (SEQ ID NO:13, 930 pmol per min/mg protein) was set at 1.0, and the activity of the other substrates was expressed relative to this value. Each value represents the average of duplicate incubations, which varied from each other by <10%.
# [2] = target: T1, purified S1P(983)-C; experiment: Effect of protease inhibitors on S1P(983)-C mediated cleavage of Ac-VFRSLK-MCA; assay type: biochemical, hamster; settings: for inhibition of S1P(983)-C: result in words
# Protocol: as §1
# S1P activity was measured fluorometrically with MCA-conjugated peptidyl substrates. […] After incubation for 0.5-5 h at 37° C., each reaction was terminated by addition of 1 ml of ice-cold 5 mM sodium EDTA. The liberated 7-amino-4-methyl-coumarin (AMC) was measured with a Perkin-ElmerLS-30 luminescence spectrometer (360 nm excitation, 460 nm emission). A standard curve of fluorescence intensity was generated with different concentrations of AMC (Promega).
# [3] = 100 μM peptide-MCA, 3 μg S1P(983)-C, 37° C., 5 h
# [4] = 0.1 mM, 100 μM Ac-VFRSLK-MCA, 37° C., 5 h
# [5] = pH 8, 0.1 mM, 100 μM Ac-VFRSLK-MCA, 37° C., 5 h, read-out: AMC Liberated, % control
# [6] = 1 mM, 100 μM Ac-VFRSLK-MCA, 37° C., 5 h
# [7] = pH 8, 1 mM, 100 μM Ac-VFRSLK-MCA, 37° C., 5 h, read-out: AMC Liberated, % control
# [8] = 3 mM, 100 μM Ac-VFRSLK-MCA, 37° C., 5 h
# [9] = 10 mM, 100 μM Ac-VFRSLK-MCA, 37° C., 5 h
# [10] = 0.0003 mM, 100 μM Ac-VFRSLK-MCA, 37° C., 5 h
# [11] = pH 8, 3 mM, 100 μM Ac-VFRSLK-MCA, 37° C., 5 h, read-out: AMC Liberated, % control
# [12] = pH 8, 10 mM, 100 μM Ac-VFRSLK-MCA, 37° C., 5 h, read-out: AMC Liberated, % control
compound,measurement,setting,value
"CC(=O)N[C@H](C(=O)N[C@@H](Cc1ccccc1)C(=O)N[C@@H](CCCNC(=N)N)C(=O)N[C@@H](CO)C(=O)N[C@@H](CCCNC(=N)N)C(=O)N[C@@H](CCCNC(=N)N)C(=O)Nc1ccc2c(C)cc(=O)oc2c1)C(C)C [Ac-VFRSRR-MCA, Ac-Val-Phe-Arg-Ser-Arg-Arg-MCA] (Ac-VFRSRR-{AMC})",Relative Activity,[1]; [3],< 0.1
same,cleavage of the peptide,[1],did not cleave
"CCCC[C@@H](C=O)NC(=O)[C@H](CC(C)C)NC(=O)[C@H](CC(C)C)NC(C)=O [ALLN, N-acetyl-leucinal-leucinal-norleucinal] (Ac-Leu-Leu-[Nle]-aldehyde)",AMC Liberated,[2]; [4],811 pmol/tube
same,remaining activity at 100 µM,[2]; [5],97%
same,inhibition of S1P(983)-C,[2],resistant
"CC(=O)N[C@@H](CCCNC(=N)N)C(=O)N[C@@H](CO)C(=O)N[C@@H](CC(C)C)C(=O)N[C@@H](CCCCN)C(=O)Nc1ccc2c(C)cc(=O)oc2c1 [Ac-RSLK-MCA, Ac-Arg-Ser-Leu-Lys-MCA] (Ac-RSLK-{AMC})",Relative Activity,[1]; [3],0.47
same,cleavage of the peptide,[1],cleaves
CC(=O)N[C@@H](CC(C)C)C(=O)N[C@@H](CC(C)C)C(=O)N[C@H](C=O)CCCNC(=N)N [Leupeptin],AMC Liberated,[2]; [6],754 pmol/tube
same,remaining activity at 1000 µM,[2]; [7],90%
same,inhibition of S1P(983)-C,[2],resistant
NCCc1ccc(S(=O)(=O)F)cc1 [Pefabloc ®],AMC Liberated,[2]; [6],731 pmol/tube
same,"AMC Liberated, % control",[2]; [6],87 % control
same,AMC Liberated,[2]; [8],366 pmol/tube
same,"AMC Liberated, % control",[2]; [8],44 % control
same,AMC Liberated,[2]; [9],60 pmol/tube
same,"AMC Liberated, % control",[2]; [9],7 % control
same,inhibition of S1P(983)-C,[2],inhibited by high concentrations
"CC(=O)N[C@H](C(=O)N[C@@H](Cc1ccccc1)C(=O)N[C@@H](CCCNC(=N)N)C(=O)N[C@@H](CO)C(=O)N[C@@H](CC(C)C)C(=O)N[C@@H](CCCCN)C(=O)Nc1ccc2c(C)cc(=O)oc2c1)C(C)C [Ac-VFRSLK-MCA, Ac-Val-Phe-Arg-Ser-Leu-Lys-MCA] (Ac-VFRSLK-{AMC})",S1P activity,[1]; [3],930 pmol per min/mg protein
same,Relative Activity,[1]; [3],1.0
same,cleavage at pH 6,[1]; pH 6,very little cleavage
same,pH of maximal rate of cleavage,"[1]; pH curve, FIG. 22C",8 pH
same,time over which fluorescence rose linearly,"[1]; purified secreted S1P(983)-C, 37° C.",5 h
"CC(=O)N[C@@H](CO)C(=O)NCC(=O)N[C@@H](CCCNC(=N)N)C(=O)N[C@@H](CO)C(=O)N[C@H](C(=O)N[C@@H](CC(C)C)C(=O)Nc1ccc2c(C)cc(=O)oc2c1)C(C)C [Ac-SGRSVL-MCA, Ac-Ser-Gly-Arg-Ser-Val-Leu-MCA] (Ac-SGRSVL-{AMC})",Relative Activity,[1]; [3],< 0.1
same,cleavage of the peptide,[1],did not cleave
Aprotinin,AMC Liberated,[2]; [10],745 pmol/tube
same,"AMC Liberated, % control",[2]; [10],89 % control
same,inhibition of S1P(983)-C,[2],resistant
"c1cnc2c(c1)ccc1cccnc12 [1,10-Phenanthroline, 1,10-phenanthroline]",AMC Liberated,[2]; [8],361 pmol/tube
same,AMC Liberated,[2]; [9],253 pmol/tube
same,remaining activity at 3000 µM,[2]; [11],43%
same,remaining activity at 10000 µM,[2]; [12],30%
same,inhibition of S1P(983)-C,[2],partially inhibited
CC(C)CC(=O)N[C@H](C(=O)N[C@H](C(=O)N[C@@H](CC(C)C)[C@@H](O)CC(=O)N[C@@H](C)C(=O)N[C@@H](CC(C)C)[C@@H](O)CC(=O)O)C(C)C)C(C)C [Pepstatin] (Isovaleryl-VV[Sta]A[Sta]-OH),AMC Liberated,"[2]; 0.01 mM, 100 μM Ac-VFRSLK-MCA, 37° C., 5 h",798 pmol/tube
same,remaining activity at 10 µM,"[2]; pH 8, 0.01 mM, 100 μM Ac-VFRSLK-MCA, 37° C., 5 h, read-out: AMC Liberated, % control",95%
same,inhibition of S1P(983)-C,[2],resistant
"CC(=O)N[C@H](C(=O)N[C@@H](Cc1ccccc1)C(=O)N[C@@H](C)C(=O)N[C@@H](CO)C(=O)N[C@@H](CC(C)C)C(=O)N[C@@H](CCCCN)C(=O)Nc1ccc2c(C)cc(=O)oc2c1)C(C)C [Ac-VFASLK-MCA, Ac-Val-Phe-Ala-Ser-Leu-Lys-MCA] (Ac-VFASLK-{AMC})",Relative Activity,[1]; [3],< 0.1
same,cleavage of the peptide,[1],no detectable cleavage
"O=S(=O)(F)Cc1ccccc1 [PMSF, phenylmethylsulfonyl fluoride]",AMC Liberated,[2]; [6],853 pmol/tube
same,"AMC Liberated, % control",[2]; [6],102 % control
same,AMC Liberated,[2]; [9],690 pmol/tube
same,"AMC Liberated, % control",[2]; [9],82 % control
same,inhibition of S1P(983)-C,[2],resisted
CC(=O)N[C@@H](CO)C(=O)NCC(=O)N[C@@H](CO)C(=O)NCC(=O)N[C@@H](CCCNC(=N)N)C(=O)N[C@@H](CO)C(=O)N[C@H](C(=O)N[C@@H](CC(C)C)C(=O)Nc1ccc2c(C)cc(=O)oc2c1)C(C)C (Ac-SGSGRSVL-{AMC}),Relative Activity,[1]; [3],< 0.1
"N=C(N)c1ccc(CS(=O)(=O)F)cc1 [APMSF, (4-amidinophenyl)-methancsulfonyl fluoride]",AMC Liberated,[2]; [6],793 pmol/tube
same,"AMC Liberated, % control",[2]; [6],95 % control
same,inhibition of S1P(983)-C,[2],resisted
O[C@H](CS)[C@H](O)CS (racemic) [Dithiothreitol],AMC Liberated,[2]; [4],615 pmol/tube
same,AMC Liberated,[2]; [6],323 pmol/tube
same,AMC Liberated,[2]; [9],99 pmol/tube
same,remaining activity at 100 µM,[2]; [5],73%
same,remaining activity at 1000 µM,[2]; [7],38%
same,remaining activity at 10000 µM,[2]; [12],12%
O=C(O)CN(CCOCCOCCN(CC(=O)O)CC(=O)O)CC(=O)O [EGTA],AMC Liberated,[2]; [8],609 pmol/tube
same,AMC Liberated,"[2]; 30 mM, 100 μM Ac-VFRSLK-MCA, 37° C., 5 h",305 pmol/tube
same,remaining activity at 3000 µM,[2]; [11],73%
same,remaining activity at 30000 µM,"[2]; pH 8, 30 mM, 100 μM Ac-VFRSLK-MCA, 37° C., 5 h, read-out: AMC Liberated, % control",36%
same,inhibition of S1P(983)-C,[2],partially inhibited
calcium,calcium concentrations at which the reaction was inhibited,[2],above 3 mM
same,effect of omission of calcium on the enzyme reaction,[2]; omission during purification and in the assay buffer,not affected
"Cc1cc(=O)oc2cc(NC(=O)[C@H](CCCNC(=N)N)NC(=O)[C@H](CCCNC(=N)N)NC(=O)[C@@H](NC(=O)[C@H](CCCNC(=N)N)NC(=O)OC(C)(C)C)C(C)C)ccc12 [Boc-RVRR-MCA, Boc-Arg-Val-Arg-Arg-MCA] (Boc-RVRR-{AMC})",Relative Activity,[1]; [3],< 0.1
same,cleavage of the peptide,[1],did not cleave
same,cleavage of the peptide,[1]; listed as RVRR-MCA,does not cleave

# Source: US6322962A, “Sterol-regulated Site-1 protease and assays of modulators thereof” (Board of Regents, The University of Texas System, priority 1999, dated 2001)
